Patent US20030224467A1, “AIB1 as a prognostic marker and predictor of resistance to endocrine therapy” (priority 2002, published 2003)
Entries after “also recorded” stand apart in the source; their conditions may differ.

Tests used:
[1] = test system: MCF-7/HER-218 tumors; experiment: Athymic nude mouse model, MCF-7/HER-218 tumor growth; assay type: in vivo, mice; settings: continued estrogen, or estrogen withdrawal plus tamoxifen, compared to estrogen withdrawal alone
Experimental: Ovariectomised female BALB/c-nu+/nu+ mice 4-5 weeks of age were purchased from Harlan Sprague-Dawley (Madison, Wis.). […] Estrogen pellets (0.25 mg, 21 day release) were purchased from Innovative Research (Rockville, Md.) and half a pellet placed subcutaneously in the interscapular area of each animal on the day prior to cell injection. MCF-7/HER-218 cells were grown in 150 cm^3 flasks and split 1:5 in DMEM (Invitrogen, Calif.) supplemented with 10% FBS. When flask cell confluence reached 90-100%, cells were harvested using a soft rubber scraper, then spun down at 1000 rpm for 3 minutes, and resuspended in the original media for injection. Cells were injected at 5×10^6−1×10^7 in 0.2 ml per animal in the right mammary fat pad. […] Each individual group had 8 animals (n=8). […] Tumors were subsequently measured weekly and recorded according to the formula: Tumor volume=width^2×length/2. Animal were weighed every 2 weeks and monitored for toxicity. Tumor growth curves were constructed using the mean of tumors' volume at each measurement point with the error bars representing the standard error of the mean. Student's t-test was used to compare data between two groups. Values are expressed as relative to tumor volume to size at the beginning of treatment as mean ±s.d.

[2] = test system: MCF-7/HER-218 cells; experiment: S-phase fraction of cells; assay type: cell-based, human; settings: agent alone
[3] = test system: AIB1 in MCF-7/HER-218 cells; experiment: Western blot mobility shift of AIB1; assay type: cell-based, human
Experimental: (§1) In PPase treatment group, cell extracts were incubated with PPase prior to analysis as previously described. Antibody against AIB1 was used.

[4] = test system: estrogen responsive genes in MCF-7/HER-218 cells; experiment: Endogenous estrogen responsive gene induction (immunoblot); settings: for Protein expression of endogenous estrogen responsive genes: 12 hr induction
Text: (§2) The cellharvest, cell extraction preparation and immunobloting were as above.

[5] = test system: ER, EGF-R, HER-2/neu, MAPK and AKT in MCF-7/HER-218 cells; experiment: Phosphorylation analysis by western immunoblotting; settings: for Phosphorylation of EGF-R, HER-2/neu and MAPK / Phosphorylation of ER on serine 118: short-term (20 minutes)
Experimental: (§3) Treatments of cells with E2, 4HOT, EGF or HRG were conducted after cells were starved in phenol red-free, serum-free IMEM for 24 hr.
(§4) Treated cells were then immediately harvested. Cells were first rinsed twice with cold PBS, and lysed in 1×cell lysis buffer (Cell Signaling Technology) supplemented with 10% Glycerol, 1 mM Pherryl Methylsulfonyl Fluoride (PMSF), 1×Complete Protease inhibitor mixture (Roche, Indianapolis, Ind.), 1 μM Okadaic acid, 10 μg/mL Microsystin as instruction from Cell Signaling Technology. Protein concentration was measured by Bio-Rad Protein Assay kit (Bio-Rad, Hercules, Calif.) according to manufacturer's instruction. 20 μg of protein extracts from individual treatments were electrophoresized on SDS-PAGE gel (Invitrogen), and electroblotted to nitrocellulose membrane (Millipore, Bedford, Mass.). Membranes were blocked with blocking buffer (5% w/v nonfat dry milk in 1×TBS with 0.1% Tween-20, TBST) for 1 hr and then incubated with primary antibody in 5% BSA TBST (for all phospho antibodies with gentle agitation overnight at 4° C., otherwise in blocking buffer for 2 hrs at room temperature). After washing and incubating with secondary horseradish peroxidase conjugated antibodies against mouse or rabbit IgG (Amershan, Arlington Heoghts, Ill. Immunoreactive proteins were detected by the ECL (Amershan). Quantitation was performed by using NIH Imagine Software.

[6] = test system: MCF-7 cells; experiment: S-phase fraction of cells; assay type: cell-based, human; settings: agent alone
[7] = test system: ER in MCF-7/HER-218 cells; experiment: ERE luciferase reporter, ER dependent transcription; assay type: cell-based, human
[8] = test system: parental MCF-7 tumors; experiment: Parental MCF-7 tumor growth; assay type: in vivo, mice; settings: wild-type MCF-7, tamoxifen
[9] = test system: phosphorylated MAPK, AIB1; experiment: Immunoblot of MCF-7/HER-218 tumors from treated mice
Experimental: Treated cells were then immediately harvested. Cells were first rinsed twice with cold PBS, and lysed in 1×cell lysis buffer (Cell Signaling Technology) supplemented with 10% Glycerol, 1 mM Pherryl Methylsulfonyl Fluoride (PMSF), 1×Complete Protease inhibitor mixture (Roche, Indianapolis, Ind.), 1 μM Okadaic acid, 10 μg/mL Microsystin as instruction from Cell Signaling Technology. […] 20 μg of protein extracts from individual treatments were electrophoresized on SDS-PAGE gel (Invitrogen), and electroblotted to nitrocellulose membrane (Millipore, Bedford, Mass.). Membranes were blocked with blocking buffer (5% w/v nonfat dry milk in 1×TBS with 0.1% Tween-20, TBST) for 1 hr and then incubated with primary antibody in 5% BSA TBST (for all phospho antibodies with gentle agitation overnight at 4° C., otherwise in blocking buffer for 2 hrs at room temperature). After washing and incubating with secondary horseradish peroxidase conjugated antibodies against mouse or rabbit IgG (Amershan, Arlington Heoghts, Ill. Immunoreactive proteins were detected by the ECL (Amershan). Quantitation was performed by using NIH Imagine Software.

[10] = test system: primary breast cancer; experiment: Five-year disease-free survival of node-positive breast cancer patients on tamoxifen adjuvant therapy, by AIB1 and HER-2 status; assay type: in vivo, human
Experimental: Frozen tumor specimens from 316 patients, all of whom had positive axillary lymph nodes at the time of initial surgery, were selected for study. Such patients have higher recurrence rates after primary treatment, resulting in more events for statistical power. […] The median follow-up for patients still living is 95 months. Proteins from 30 mg of tissue were extracted in 300 μl 5% SDS at 90° C. for 5 minutes. Protein concentration was determined using the BCA method (Pierce, Rockford, Ill.); typical yields were 2-5 μg/μl. Samples were stored at −70° C. until use.
Assays were performed and results quantified by an investigator blinded to clinical information. 20 μg of extracted protein in sample buffer (0.05 M tris, pH 6.8, containing 2% SDS, 2.5% β-mercaptoethanol, 10% glycerol, and 0.1% bromphenol blue as tracking dye) were placed in boiling water for 2 minutes, cooled to room temperature, and centrifuged for 1 minute. An MCF-7 reference standard (5 μg protein per lane) was included on each gel as a normalization control. Proteins were electrophoresed on 8% Tricine-Glycine polyacrylamide gels (Invitrogen, Carlsbad, Calif.) and then transferred onto nitrocellulose. Blots were rinsed 5 minutes with TBS (TRIS-buffered saline: 100 mM TRIS, pH 7.5, and 0.9% NaCl) containing 0.1% Tween-20 (TBST). After blocking with 5% nonfat dry milk in TBST, the blots were incubated overnight at 4° C. in the primary antibody (1:1000 rabbit anti-RAC3 antiserum). This antibody was raised in rabbits against a MBP fusion protein containing amino acid residues 582-842 of human RAC3 (AIB1).
The blots were washed 3 times in TBST, followed by incubation for 1 hour in 5% nonfat dry milk in TBST and 1:5000 horseradish peroxidase labeled anti-rabbit Ig (Amersham, Piscataway, N.J.). The blots were washed 5 times in TBST, after which the labeled protein was visualized on a FluorChem digital imaging system (Alpha Innotech, San Leandro, Calif.) using an enhanced chemiluminescence detection system. Band intensities were measured densitometrically using the AlphaEaseFC software (Alpha Innotech, San Leandro, Calif.). AIB1 levels in tumors were normalized to the AIB1 concentration in the MCF-7 positive control lysate (5 μg) from the same immunoblot.
ER and progesterone receptors (PR) were measured by ligand binding assays as described by Harvey et al., 1999. S-phase fraction was calculated by DNA flow cytometry and classified as low, intermediate, or high (Wenger et al, 1998). Immunohistochemistry was used to semiquantitatively measure p53 and bcl 2 expression, and HER-2 expression was determined by western blot analyses as described by Elledge et al., 1997, and Tandon et al., 1989.
Associations between AIB1, steroid receptors, HER-2 and other molecular markers, and clinical variables were assessed using Spearman rank correlation. The disease-free survival (DFS) was calculated from the date of diagnosis. First recurrence (local or distant) was scored as an event, and patients without recurrence were censored at the time of last follow-up or death, meaning that an event of interest (e.g., recurrence or death) has not yet occurred. For graphical presentation, follow-up was truncated at 120 months. Overall survival was calculated from the date of diagnosis, with death from any cause being scored as an event. Patients who were alive at the last follow-up were censored at the last follow-up date. Survival curves were derived from Kaplan-Meier estimates, which are well known in the art, and the curves were compared by log-rank tests. Initially, separate analyses were performed for treated and untreated patients. The influence of AIB1 adjusted for other prognostic factors was assessed in multivariate analysis by Cox proportional hazards models.

[11] = test system: estrogen responsive genes in wild-type MCF-7 cells; experiment: Endogenous estrogen responsive gene induction (immunoblot); settings: 12 hr induction
Text: as §2

[12] = test system: ER, EGF-R, HER-2/neu, MAPK and AKT in parental MCF-7 cells; experiment: Phosphorylation analysis by western immunoblotting; settings: for Phosphorylation of EGF-R and HER-2/neu / Phosphorylation of ER on serine 118 / Phosphorylation of MAPK and AKT: short-term (20 minutes)
Experimental: as §3, §4

[13] = test system: HER-2/neu and MAPK in BT474 cells; experiment: Phosphorylation analysis by western immunoblotting; settings: 20 minute treatment
Experimental: as §4

[14] = test system: pS2 promoter in MCF-7/HER-218 cells; experiment: Chromatin immunoprecipitation on the pS2 promoter; settings: 20 minute incubation
Experimental: (§5) Wild type MCF7 and HER-2-18 cells were grown to 90% confluence in phenol red-free IMEM supplemented with 10% CDS FBS for 7 days, the cells were starved completely with phenol red-free IMEM (without serum) for overnight. […] Cells were pelleted and lysis in 1 ML SDS lysis buffer and incubated on ice for 10 min. Lysate was sonicated by three times for 10 sec. at maximum setting followed by centrifugation for 10 min at 4 C. 200 ul of supernatant was, subjected to each immunoprecipitation with specific antibody, diluted with ChIP dilution buffer 10 fold and pre-cleared with 80 ul of SS-DNA/Protein A/G agarose plus 20 ul of normal mouse or rabbit IgG (Santa Cruz) depending on primary antibody used afterward for 4 hrs at 4 C. The beads were collected and saved as normal IgG control. The pre-cleared supernatant was immunoprecipitated with antibodies against ER, or AIB1, or NcoR, or Act-H3, respectively at 4° C. for overnight, followed by SS-DNA/Protein A/G at 4 C. for 1 hr. Pellet agarose by gentle centrifugation (1000 rpm, 1 min, 4° C.). The pellets were intensively washed sequentially as follows in 1 ml volume: low salt wash buffer X 1 time, high salt wash buffer X 1 time, LiCl salt wash buffer X 1 time, TE X 2 times. […]

[15] = test system: pS2 promoter in MCF-7 cells; experiment: Chromatin immunoprecipitation on the pS2 promoter; settings: 20 minute incubation
Experimental: as §5

[16] = test system: ER in MCF-7 cells; experiment: ERE luciferase reporter, ER dependent transcription; assay type: cell-based, human
[17] = test system: AIB1 in MCF-7 cells; experiment: Western blot mobility shift of AIB1; assay type: cell-based, human; settings: reversed by phosphatase treatment
Experimental: as §1

## CC/C(=C(\c1ccccc1)c1ccc(OCCN(C)C)cc1)c1ccccc1 [tamoxifen]
[1]
  Tumor growth: increased tumor growth; also recorded: stimulated
[2]
  Fraction of cells in S-phase: stimulated the fraction of cells in S-phase
[3]
  AIB1 phosphorylation (mobility shift of AIB1 band): phosphorylation of AIB1 was observed
[4]
  Protein expression of endogenous estrogen responsive genes: behaved as an estrogen agonist on all of the genes
[5]; 48 hour treatment
  MAPK phosphorylation: striking effects
  Phosphorylation of ER: still evident
[5]
  Phosphorylation of EGF-R, HER-2/neu and MAPK: phosphorylation was detected
  Phosphorylation of ER on serine 118: phosphorylated
[6]
  Percent of cells in S-phase: no agonist effect
[7]; agent alone
  ERE luciferase activity above control: inability
[8]
  Tumor growth: inhibited
[9]; MCF-7/HER-218 tumors of treated mice
  Total and phosphorylated AIB1 in tumors: induced; also recorded: both higher
[9]; estrogen, or estrogen withdrawal plus tamoxifen, versus estrogen withdrawal alone
  Tumor level of phosphorylated (active) MAPK: activate MAPK and high
[10]; High HER-2 (grade 2-4), High AIB1 (top quartile)
  5 yr DFS: 42%
[10]; High HER-2 (grade 2-4), High AIB1 (top quartile), listed as Tamoxifen
  5 yr DFS: 42%
[10]; High HER-2 (grade 2-4), Low AIB1 (lower 3 quartiles)
  5 yr DFS: 77%
[10]; High HER-2 (grade 2-4), Low AIB1 (lower 3 quartiles), listed as Tamoxifen
  5 yr DFS: 77%
[10]; Low HER-2 (grade 0-1), High AIB1 (top quartile)
  5 yr DFS: 82%
[10]; Low HER-2 (grade 0-1), Low AIB1 (lower 3 quartiles)
  5 yr DFS: 64%
[10]; other three groups combined (not high AIB1 and high HER-2)
  5-year DFS: 70%
[11]
  Protein expression of endogenous estrogen responsive genes: no agonist activity
[12]; 48 hour treatment
  MAPK phosphorylation: no effect
  Phosphorylation of ER: still evident
[12]
  Phosphorylation of EGF-R and HER-2/neu: could not detect phosphorylation
  Phosphorylation of ER on serine 118: phosphorylate
  Phosphorylation of MAPK and AKT: could not detect phosphorylation
[13]
  Phosphorylated HER-2/neu and MAPK: striking increase
[14]
  Occupancy of the pS2 promoter: induced occupancy of the pS2 promoter by ER and by AIB1
[15]
  Occupancy of the pS2 promoter: induced occupancy of this promoter by ER but not by AIB1
[16]; agent alone
  ERE luciferase activity: no agonist activity

## EGF: epidermal growth factor purchased from Invitrogen (NSDSECPLSHDGYCLHDGVCMYIEALDKYACNCVVGYIGERCQYRDLKWWELR; Epidermal growth factor; UniProt P01133 971-1023, looked up)
[5]
  Phosphorylation of EGF-R, HER-2/neu and MAPK: phosphorylation was detected
  Phosphorylation of ER on serine 118: phosphorylated
[12]
  Phosphorylation of EGF-R and HER-2/neu: unable to detect phosphorylation
  Phosphorylation of ER on serine 118: phosphorylate
  Phosphorylation of MAPK and AKT: did phosphorylate MAPK and AKT

## heregulin
[2]
  Fraction of cells in S-phase: stimulated the fraction of cells in S-phase
[17]
  AIB1 phosphorylation (mobility shift of AIB1 band): upshifted the AIB1 band
[3]
  AIB1 phosphorylation (mobility shift of AIB1 band): phosphorylation of AIB1 was observed
[4]
  Protein expression of endogenous estrogen responsive genes: dramatic effects on several of these genes
[4]; heregulin
  Level of IRS1: large increase
  Protein expression of progesterone receptor: increased
[5]
  Phosphorylation of EGF-R, HER-2/neu and MAPK: phosphorylation was detected
  Phosphorylation of ER on serine 118: phosphorylated
[6]
  Percent of cells in S-phase: markedly increased the S-phase fraction
[7]; heregulin added
  ERE luciferase activity in response to both estrogen and tamoxifen: remarkably enhanced luciferase activity
[7]; heregulin added to tamoxifen
  Estrogen agonist properties of tamoxifen (luciferase): levels above estrogen alone
[11]
  Protein expression of endogenous estrogen responsive genes: induced the expression of all of the genes except for progesterone receptor
[12]
  Phosphorylation of EGF-R and HER-2/neu: strongly phosphorylated
  Phosphorylation of ER on serine 118: phosphorylate
  Phosphorylation of MAPK and AKT: strongly phosphorylated
[16]; heregulin added to estrogen
  ERE luciferase activity: two fold
[16]; heregulin added to tamoxifen
  ERE luciferase activity: increase luciferase activity a small amount
